Data: patent EP0592600B1, “PROTEINS S POLYPEPTIDES AND USES THEREOF” (THE SCRIPPS RESEARCH INSTITUTE, priority 1991, dated 1993)
Ends that are not written are not given here. Peptide text beside a SMILES is read from it.

T1: PS:C4BP complex (Homo sapiens, UniProt P04003+P20851)
T1 construct: Purified human C4BP was obtained from 5 liters (1) of human citrated plasma; from tissue; host or cells: human citrated plasma (C4BP); protein S per Schwarz et al
T1 sequence (P04003 49-597): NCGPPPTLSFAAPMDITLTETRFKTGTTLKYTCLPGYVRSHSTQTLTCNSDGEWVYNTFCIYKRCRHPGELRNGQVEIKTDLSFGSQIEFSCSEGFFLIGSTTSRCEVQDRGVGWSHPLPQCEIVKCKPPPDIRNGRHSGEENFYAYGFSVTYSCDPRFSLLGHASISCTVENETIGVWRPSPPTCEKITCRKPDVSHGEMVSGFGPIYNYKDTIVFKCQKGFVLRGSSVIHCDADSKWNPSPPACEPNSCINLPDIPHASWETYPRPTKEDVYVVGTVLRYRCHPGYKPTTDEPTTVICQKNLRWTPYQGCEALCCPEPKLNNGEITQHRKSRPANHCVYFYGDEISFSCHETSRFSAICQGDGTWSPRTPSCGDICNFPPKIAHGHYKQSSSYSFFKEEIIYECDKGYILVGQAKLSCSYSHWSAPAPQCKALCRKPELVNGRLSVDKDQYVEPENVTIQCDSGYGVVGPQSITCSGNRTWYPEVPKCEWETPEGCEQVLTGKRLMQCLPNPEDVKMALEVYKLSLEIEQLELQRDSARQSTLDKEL
T1 sequence (P20851 18-252): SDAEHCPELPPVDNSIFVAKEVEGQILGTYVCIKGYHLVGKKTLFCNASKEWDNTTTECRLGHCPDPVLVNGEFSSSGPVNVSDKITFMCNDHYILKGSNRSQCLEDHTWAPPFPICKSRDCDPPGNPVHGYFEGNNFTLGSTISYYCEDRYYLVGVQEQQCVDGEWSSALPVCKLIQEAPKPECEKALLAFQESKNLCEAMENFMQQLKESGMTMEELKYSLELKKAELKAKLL

T2: C4b binding protein (human, UniProt P04003 49-597; P20851 18-252)
T2 construct: mature; The beta chain is added from general knowledge; Biotinylated (b-C4BP) in some assays; also called C4BP; purified human C4BP
T2 sequence (looked up) 1: T1 sequence (P04003 49-597)
T2 sequence (looked up) 2: T1 sequence (P20851 18-252)

B1: PSP-428K* (peptide)
peptide: SGIKEIIQKKQNKC-NH2
notes: protein S 420-432,434 with a substitution

Experiments:
[1] = biological target: T1, PS:C4BP complex; experiment: Peptide Inhibition Assay: binding of b-PS to C4BP in solid phase; conditions: peptide concentration of 800 µM; read-out: percent inhibition of PS:C4BP complex formation
Procedure: Each of the peptides produced as described in Example 1 and listed in Table 1 was analyzed for its ability to inhibit the binding of native protein S in liquid-phase to C4BP in solid-phase.
Microtiter wells of a 96 well plate were coated with 50 µl of 10 µg/ml purified C4BP in carbonate buffer (0.02 M Na2CO3, pH 9.0, 0.02% Na-Azide). After blocking with 10% BSA in TBS, 50 µl of different concentrations of peptides diluted in washing buffer (TBS, 0.2% BSA, 5mM CaCl, 0.02% Tween 20) were separately admixed to C4BP-coated wells. After 2 hours at room temperature, 50 µl of a solution of biotinylated protein S, were admixed to each well to form a second binding admixture having a final concentration of 2 µg/ml. The plate was agitated and the samples were incubated 1 hour at room temperature. The samples were discarded and the wells were washed 3 times with washing buffer. To each well, 50 µl of strepavidin-alkaline-phosphatase (1 µg/ml washing buffer) were admixed and allowed to incubate for 30 minutes at room temperature. The strepavidin-alkaline-phosphatase was then discarded and the wells were washed 6 times with washing buffer. The resulting optical densities of the reaction solutions were read as described before in Example 2C.
Results of the assay are reported as percent inhibition of C4BP binding. Percent of inhibition of C4BP binding is defined as: I = 100% - 100 x (deltaT /deltaC ) [formula] • where I is expressed as a percent; and • where 100% = delta/min of the amount of b-PS which specifically bound to C4BP-coated wells in the absence of any competing PS-peptide; and • where deltaT = the change in absorbance (405 nm) in the presence of competing PS-peptide; and • where deltaC = the change in absorbance (405 nm) in the absence of competing PS-peptide.

[2] = biological target: T1, PS:C4BP complex; experiment: Peptide inhibition of binding of b-C4BP to PS-coated wells; conditions: b-C4BP 1 µg/ml, PS-coated wells, peptide 0 - 500 µM; for IC90: read-out: IC90; for IC50: read-out: half-maximal inhibitory concentration (IC50)
Procedure: An alternative approach was used to test the ability of the peptides, PSP-loop and PSP-428K, in comparison with that seen with the PSP-12 peptide, in inhibiting the binding of C4BP to PS. For this assay, the microtiter wells were coated with purified PS diluted to a concentration of 10 µg/ml in carbonate-coating buffer as described above. The wells were maintained to allow the PS to bind to the well walls. After the maintenance period, the wells were blocked also as described above. The selected PSP peptides were separately admixed at various concentrations ranging from 0 - 500 µM with biotinylated-C4BP (b-C4BP) at a concentration of 1 µg/ml. The admixtures were maintained on a fluid phase plate for 2 hours at room temperature to form peptide-C4BP complexes.
Fifty µl of the complexed admixtures were separately admixed to the prepared C4BP-coated wells and maintained for 1 hour at room temperature. Thereafter, the plate was washed and processed for developing as described above.

[3] = biological target: T1, PS:C4BP complex; experiment: Fluid-phase peptide inhibition of PS binding to b-C4BP, detected on MAb S-7-coated plates; conditions: b-C4BP 0.5 µg/ml, PS 1.0 µg/ml, peptide 0 - 500 µM
Procedure: An alternative approach was used to test the ability of the peptides, PSP-loop, PSP-424K and PSP-428K, in comparison with that seen with the PSP-12 peptide, in inhibiting the binding of PS to C4BP, the result of which was detected on monoclonal antibody-coated plates. For this assay, biotinylated-C4BP (b-C4BP), PS and PSP peptides were admixed together at the respective concentrations of 0.5 µg/ml, 1.0 µg/ml and at a range of 0 - 500 µM (V:V:V). The admixtures were maintained for 2 hours at room temperature on a fluid phase plate to allow the binding and/or inhibition thereof of PS to C4BP by the PS-derived peptides. After the maintenance period, 50 µl of the admixture were separately admixed to wells previously coated with 10 µg/ml of MAb S-7 (ATCC No. HB 80819). The admixtures were maintained for 1 hour at room temperature to allow for the binding of C4BP to MAb S-7-antibody-coated plates. The binding of biotinylated complexes to the antibody-coated plates was detected as described in Example 5Aii.

[4] = biological target: T2, C4b binding protein; experiment: Competition ELISA, peptide 800 µM on coated C4BP, then b-PS
[5] = biological target: T2, C4b binding protein; experiment: Competition ELISA, peptide preincubated with b-C4BP, PS-coated wells

| Molecule | inhibition at 800 µM [1] [%] | % inhibition of PS:C4BP complex formation [4] [%] | also measured |
| --- | --- | --- | --- |
| CC[C@H](C)[C@H](NC(=O)[C@H](CCC(=O)O)NC(=O)[C@@H](N)CCCCN)C(=O)N[C@H](C(=O)N[C@@H](CCC(N)=O)C(=O)N[C@@H](CCC(=O)O)C(=O)N[C@@H](CCCCN)C(=O)N[C@@H](CCC(N)=O)C(=O)N[C@@H](CC(N)=O)C(=O)N[C@@H](CCCCN)C(=O)N[C@@H](Cc1c[nH]cn1)C(=O)N[C@@H](CO)C(N)=O)[C@@H](C)CC [PSP-428*, KEIIQEKQNKHS] (H-KEIIQEKQNKHS-NH2) | ~60 |  |  |
| CC[C@H](C)[C@H](NC(=O)CNC(=O)[C@H](CO)NC(=O)[C@H](C)NC(=O)CNC(=O)[C@H](CCC(N)=O)NC(=O)[C@H](CCCCN)NC(=O)[C@H](CCSC)NC(=O)[C@H](CC(C)C)NC(=O)[C@@H](N)CC(N)=O)C(N)=O [PSP-417] (H-NLMKQGASGI-NH2) | ~60 |  |  |
| CC[C@H](C)[C@H](NC(=O)CN)C(=O)N[C@@H](CCCCN)C(=O)N[C@@H](CCC(=O)O)C(=O)N[C@H](C(=O)N[C@H](C(=O)N[C@@H](CCC(N)=O)C(N)=O)[C@@H](C)CC)[C@@H](C)CC [PSP-424, GIKEIIQ] (H-GIKEIIQ-NH2) | 40 |  |  |
| CC[C@H](C)[C@H](NC(=O)CNC(=O)[C@H](CO)NC(=O)[C@H](C)NC(=O)CNC(=O)[C@H](CCC(N)=O)NC(=O)[C@H](CCCCN)NC(=O)[C@H](CCSC)NC(=O)[C@H](CC(C)C)NC(=O)[C@@H](N)CC(N)=O)C(=O)N[C@@H](CCCCN)C(=O)N[C@@H](CCC(=O)O)C(N)=O [PSP-417P] (H-NLMKQGASGIKE-NH2) | ~60 |  |  |
| CC[C@H](C)[C@H](NC(=O)CNC(=O)[C@H](CO)NC(=O)[C@H](C)NC(=O)CNC(=O)[C@@H](N)CCC(N)=O)C(=O)N[C@@H](CCCCN)C(=O)N[C@@H](CCC(=O)O)C(N)=O [PSP-417A] (H-QGASGIKE-NH2) | ~80 |  |  |
| CC[C@H](C)[C@H](NC(=O)CNC(=O)[C@@H](N)CO)C(=O)N[C@@H](CCCCN)C(=O)N[C@@H](CCC(=O)O)C(=O)N[C@H](C(=O)N[C@H](C(=O)N[C@@H](CCC(N)=O)C(=O)N[C@@H](CCCCN)C(=O)N[C@@H](CCCCN)C(=O)N[C@@H](CCC(N)=O)C(=O)N[C@@H](CC(N)=O)C(=O)N[C@@H](CCCCN)C(=O)N[C@@H](CS)C(N)=O)[C@@H](C)CC)[C@@H](C)CC [PSP-428K, SGIKEIIQKKQNKC] (H-SGIKEIIQKKQNKC-NH2) |  |  | IC90 [2]: ~250 µM; IC50 [2]: ~50 µM |
| CC[C@H](C)[C@H](NC(=O)CNC(=O)[C@@H](N)CO)C(=O)N[C@@H](CCCCN)C(=O)N[C@@H](CCC(=O)O)C(=O)N[C@H](C(=O)N[C@H](C(=O)N[C@@H](CCC(N)=O)C(=O)N[C@@H](CCC(=O)O)C(=O)N[C@@H](CCCCN)C(=O)N[C@@H](CCC(N)=O)C(=O)N[C@@H](CC(N)=O)C(=O)N[C@@H](CCCCN)C(=O)N[C@@H](Cc1c[nH]cn1)C(=O)N[C@@H](CS)C(N)=O)[C@@H](C)CC)[C@@H](C)CC [PSP-12] (H-SGIKEIIQEKQNKHC-NH2; N-terminus assumed) | 80 |  | IC50 [3]: ~50 µM; IC90 ([3]; read-out: IC90): ~250 µM; IC90 [2]: ~250 µM; IC50 [2]: ~50 µM |
| NCCCC[C@H](NC(=O)[C@H](CC(N)=O)NC(=O)[C@H](CCC(N)=O)NC(=O)[C@H](CCCCN)NC(=O)[C@H](CCC(=O)O)NC(=O)[C@@H](N)CCC(N)=O)C(=O)N[C@@H](Cc1c[nH]cn1)C(=O)N[C@@H](CO)C(N)=O [PSP-430*] (H-QEKQNKHS-NH2) | ~80 |  |  |
| NLMKQGASGIKE-NH2 [PSP-417P] |  | 60 |  |
| GIKEIIQ-NH2 [PSP-424] |  | 40 |  |
| NLMKQGASGI-NH2 [PSP-417] |  | 60 |  |
| QGASGIKE-NH2 [PSP-417A] |  | 80 |  |
| SGIKEIIQEKQNKHC-NH2 (also: biotinylated form b-PSP-12 also used, also called b-PSP-12 (biotinylated)) [PSP-12] |  |  | IC50 [5]: ~50 µM; IC90 [5]: ~250 µM |
| QEKQNKHS-NH2 [PSP-430*] |  | 80 |  |
| B1 |  |  | IC90 [5]: ~250 µM |
| KEIIQEKQNKHS-NH2 [PSP-428*] |  | 60 |  |
